This is an account of results in US12448383B2, “Compounds and methods for treatment of viral infections” (priority 2022, dated 2025).

The test system of series [1] is SARS Coronavirus 2 recombinant with NanoLuc (SARS-CoV2-NLuc) in A549-hACE2 cells. In words: organism not typed. The format is cell-based. Particulars: 48 h; read-out: SARS-CoV2 EC50.
The nature of the next series: Plasma stability. In kind it is in vitro ADME. Also noted: unit not given here. Particulars: 37° C., 2 μM substrate. The protocol:
At 0.05, 0.5, 1, 2, 3 and 4 hr, […] aliquots of the reaction mixture were transferred to plates containing […] of IS/Q quenching solution. After quenching, the plates were centrifuged at 3000 g for 30 minutes, and 150 μL supernatant was diluted with 150 μL water. Aliquots ([…]) of the diluted supernatant were analyzed on a Thermo Q-Exactive mass spectrometer as described below.
Mobile phase A consisted of 0.1% (v/v) formic acid in water. Mobile phase B consisted of 0.1% (v/v) formic acid in acetonitrile. Elution of analytes was achieved by a series of linear gradients of acetonitrile in water containing 0.1°(v/v) formic acid. The mass spectrometer was calibrated on a weekly basis and mass tolerance of 5 ppm was used.

The nature of series [2]: CC50 MT4 cytotoxicity (Cell-Titer Glo). The format is cell-based. Conditions: human. The protocol:
Cytotoxicity of the compounds was determined in uninfected cells using the cell viability reagent in a similar fashion as described before for other cell types (Cihlar et al., Antimicrob Agents Chemother. 2008, 52(2):655-65). HEp-2 (1.5×10^3 cells/well) and MT-4 (2×10^3 cells/well) cells were plated in 384-well plates and incubated with the appropriate medium containing 3-fold serially diluted compound ranging from 15 nM to 100,000 nM. Cells were cultured for 4-5 days at 37° C. Following the incubation, the cells were allowed to equilibrate to 25° C., and cell viability was determined by adding Cell-Titer Glo viability reagent. The mixture was incubated for 10 min, and the luminescence signal was quantified using an Envision plate reader. Untreated cell and cells treated at 2 μM puromycin (Sigma, St. Louis, MO) serve as 100% and 0% cell viability control, respectively. The percent of cell viability was calculated for each tested compound concentration relative to the 0% and 100% controls and the CCso value was determined by non-linear regression as a compound concentration reducing the cell viability by 50%.

The test system of series [3] is Respiratory syncytial virus recombinant with luciferase (RSV-Luc5) in Normal Human Bronchial Epithelial (NHBE) cells. In words: microbe, parasite or virus in culture. In kind it is cell-based. Conditions: 72 h, read-out: RSV NHBE EC50.
A short description of series [4]: GI S9 stability - no PMSF. In kind it is in vitro ADME. Also noted: GIS9-HUMAN-NoPMSF T1/2: unit: min. Conditions: human intestinal S9, PMSF-free; for half-life at 2 µM: pH 7.4, read-out: GIS9-HUMAN-NoPMSF T1/2. The procedure: Duplicate aliquots of test compound or positive control substrate (GS-7340) were added to S9 stock diluted with 100 mM phosphate buffered saline, pH 7.4, to obtain a protein concentration of 1.0 mg/mL. The S9 metabolic reactions were initiated by the addition of the substrates to the S9 reaction mixture to a final concentration of 2 μM. At 0, 10, 20, 30, 60 and 120 min, […] aliquots of the reaction mixture were transferred to plates containing […] of IS/Q solution. After quenching, the plates were centrifuged at 3000 g for 30 minutes, and 150 μL aliquots of each supernatant were diluted with 150 μL water. Aliquots ([…]) of the diluted supernatant were analyzed on a Thermo Q-Exactive mass spectrometer as described below. GI S9 Stability—No phenylmethylsulfonyl fluoride (PMSF): Similar to the procedure described above, test compounds were incubated at 2 μM with 1 mg/mL PMSF-free Intestinal S9 fractions. Samples are removed at 6 time points over the course of a 120 min experiment and the parent compound disappreance and reference compound A formation is determined by mass spectrometry.
Example K: Liquid Chromatography/Mass Spectroscopy Methods for S9 and Plasma Stability
Quantification of test compounds, Reference Compound A (S9 stability assay nucleoside metabolite), and controls was performed by analyte/internal standard peak area ratio (PAR) values measured on a Thermo Q-Exactive mass spectrometer coupled to a Dionex UltiMate 3000 HPLC with a Leap Technologies HTC PAL autosampler. The column used for analysis of test compounds and Reference Compound A was a Waters Acquity BEH C18 ([…] particle size, 2.1′50 mm). The column used for control (GS-7340) was a Thermo Hypersil GOLD ([…] particle size, 2.1′50 mm). Mobile phase A consisted of 0.1% (v/v) formic acid in water. Mobile phase B consisted of 0.1% (v/v) formic acid in acetonitrile. Elution of analytes was achieved by a series of linear gradients of acetonitrile in water containing 0.1°(v/v) formic acid. The mass spectrometer was calibrated on a weekly basis and mass tolerance of 5 ppm was used.

Series [5] has as its system Caco-2 cells (clone C2BBe1). As to the kind of experiment: CACO-2 permeability. In kind it is in vitro ADME. Particulars: for DM Caco2 A to B: apical to basolateral, donor pH 6.5, receiver pH 7.4; for DM Caco2 B to A: basolateral to apical. Further details: unit not given here. The protocol:
Pre-plated Caco-2 cells (clone C2BBel) were obtained from Sigma-Aldrich, Inc. (Atlanta, GA). Cell monolayers were grown to confluence on collagen-coated, microporous, polycarbonate membranes in 24-well transwell plates for 21 days. The permeability assay buffer in donor wells was Hanks' balanced salt solution (HBSS) containing 10 mM HEPES and 15 mM glucose at a pH of 6.5 containing 200 μM BNPP. The receiver wells used HBSS buffer containing 10 mM HEPES and 15 mM glucose at a pH of 7.4 and supplemented with 1°% BSA. After an initial equilibration with transport buffer, TEER values were read to test membrane integrity. The experiment was started by the addition of buffers containing test compounds, 200 μl and 1000 μl in the apical and basolateral chamber, respectively. At 0- and 2-hour post dose, 10 μL was sampled from donor compartment and was immediately diluted in 190 μL of 20% methanol. At 1 and 2 hours post dose, 100 μl of solution was taken from the receiver compartments and was immediately diluted in 100 μl of 20% methanol. Removed buffer was replaced with fresh buffer and a correction was applied to all calculations for the removed material. Each compound was tested in 2 separate replicate wells for each condition. All samples were then extracted with 400 μl 100% acetonitrile with internal standard to precipitate protein. Cells were dosed on the apical or basolateral side to determine forward (A to B) and reverse (B to A) permeability. To test for non-specific binding and compound instability, the total amount of drug was quantitated at the end of the experiment and compared to the material present in the original dosing solution as a percent recovery. […] Samples were analyzed by LC-MS/MS.

Consider `CC1(OC(=O)OC[C@H]2O[C@@](C#N)(c3ccc4c(N)ncnn34)[C@H](O)[C@@H]2O)CCCCCCC1` [Compound 57, ((2R,3S,4R,5R)-5-(4-aminopyrrolo[2,1-f][1,2,4]triazin-7-yl)-5-cyano-3,4-dihydroxytetrahydrofuran-2-yl)methyl (1-methylcyclooctyl) carbonate], for which the values for the 50% effective concentration (EC50) in series [1] and in series [3] were 2.29 µM and 2.45 µM, respectively. Also, the “STA Human Plasma 37” value in the series “Plasma stability” was 317.5. In addition, the CC50 (usually the concentration that lowers cell viability or growth by half) in series [2] is greater than 50 µM.

As for `C=CCCOC(=O)O[C@H]1[C@@H](OC(=O)OCCC=C)[C@](C#N)(c2ccc3c(N)ncnn23)O[C@@H]1COC(=O)OC(C)C` [Compound 136, (2R,3R,4R,5R)-2-(4-aminopyrrolo[2,1-f][1,2,4]triazin-7-yl)-2-cyano-5-(((isopropoxycarbonyl)oxy)methyl)tetrahydrofuran-3,4-diyl di(but-3-en-1-yl) bis(carbonate)], in series [1], the EC50 (commonly the midpoint of the concentration-response curve) worked out at 4.7 µM. Besides, the half-life at 2 µM in series [4] came out at 1.01 min. Moreover, in series [5], the “DM Caco2 A to B” value was 4.33 and the “DM Caco2 B to A” value is 5.7. Besides, in “Plasma stability”, the “STA Human Plasma 37” value is listed as 463.08. In addition, the CC50 in series [2] was greater than 50 µM. Besides, the concentration for a half-maximal effect (EC50) in series [3] came out at 2.03 µM.

With `CC1=CCC(OC(=O)OC[C@H]2O[C@@](C#N)(c3ccc4c(N)ncnn34)[C@H](O)[C@@H]2O)(C(C)C)CC1` (stereo partly drawn) [Compound 74, ((2R,3S,4R,5R)-5-(4-aminopyrrolo[2,1-f][1,2,4]triazin-7-yl)-5-cyano-3,4-dihydroxytetrahydrofuran-2-yl)methyl (1-isopropyl-4-methylcyclohex-3-en-1-yl) carbonate], the figures for the EC50 in series [1] and in series [3] were 2.4 µM and 0.956 µM, respectively. Besides, the half-life at 2 µM in series [4] was 30.3 min. In series [5], the “DM Caco2 A to B” value is listed as 3.25. For the same compound, the “DM Caco2 B to A” value in series [5] came out at 9.88. Besides, the “STA Human Plasma 37” value in the series “Plasma stability” was 205.11. This compound also registered a CC50 in series [2] greater than 50 µM.

In the case of `CC(C)(OC(=O)OC[C@H]1O[C@@](C#N)(c2ccc3c(N)ncnn23)[C@H](O)[C@@H]1O)c1cccnc1` [Compound 99, [(2R,3S,4R,5R)-5-(4-aminopyrrolo[2,1-f][1,2,4]triazin-7-yl)-5-cyano-3,4-dihydroxy-tetrahydrofuran-2-yl]methyl [1-methyl-1-(3-pyridyl)ethyl] carbonate], the half-life at 2 µM in series [4] was 96.6 min. Moreover, in series [5], the “DM Caco2 A to B” value is 0.11 and the “DM Caco2 B to A” value is given as 2.47. Also, in “Plasma stability”, the “STA Human Plasma 37” value was 173.49. Moreover, the half-maximal effective concentration (EC50) in series [3] came to 3.15 µM.

With `Cc1ccc(C(C)C)c(OC(=O)OC[C@H]2O[C@@](C#N)(c3ccc4c(N)ncnn34)[C@H](O)[C@@H]2O)c1` [Compound 82, ((2R,3S,4R,5R)-5-(4-aminopyrrolo[2,1-f][1,2,4]triazin-7-yl)-5-cyano-3,4-dihydroxytetrahydrofuran-2-yl)methyl (2-isopropyl-5-methylphenyl) carbonate], in series [1], the EC50 is 1.55 µM. Moreover, in series [4], the half-life at 2 µM was 2 min. Moreover, in series [5], the “DM Caco2 A to B” value was found to be 2.73 and the “DM Caco2 B to A” value was 20.67. In addition, the “STA Human Plasma 37” value in the series “Plasma stability” is listed as 193.22. The compound also gave a CC50 in series [2] greater than 50 µM. In addition, in series [3], the EC50 was 2.41 µM.

`N#C[C@@]1(c2ccc3c(N)ncnn23)O[C@H](CO)[C@@H](O)[C@H]1O` [Reference Compound A, (2R,3R,4S,5R)-2-(4-aminopyrrolo[2,1-f][1,2,4]triazin-7-yl)-3,4-dihydroxy-5-(hydroxymethyl)tetrahydrofuran-2-carbonitrile, reference compound]: in series [5], the “DM Caco2 A to B” value came to 0.12 and the “DM Caco2 B to A” value turned out to be 1.52.

As to `COC(=O)OC[C@H]1O[C@@](C#N)(c2ccc3c(N)ncnn23)[C@@H]2OC(=O)O[C@@H]21` [Compound 127, ((3aR4R,6R,6aR)-6-(4-aminopyrrolo[2,1-f][1,2,4]triazin-7-yl)-6-cyano-2-oxotetrahydrofuro[3,4-d][1,3]dioxol-4-yl)methyl methyl carbonate], the EC50 in series [1] came out at 13.7 µM; in series [3], 5.06 µM. Besides, the half-life at 2 µM in series [4] was 0.957 min. Moreover, the “STA Human Plasma 37” value in “Plasma stability” amounted to 12.071. In series [2], the CC50 was greater than 50 µM.

In the case of `CC(C)(OC(=O)OC[C@H]1O[C@@](C#N)(c2ccc3c(N)ncnn23)[C@H](O)[C@@H]1O)c1ccccn1` [Compound 98, [(2R,3S,4R,5R)-5-(4-aminopyrrolo[2,1-f][1,2,4]triazin-7-yl)-5-cyano-3,4-dihydroxy-tetrahydrofuran-2-yl]methyl [1-methyl-1-(2-pyridyl)ethyl] carbonate], the “GIS9-HUMAN-NoPMSF T1/2” value in series [4] worked out at 789. In addition, in series [5], the “DM Caco2 A to B” value was 0.02 and the “DM Caco2 B to A” value was 5.65. For the same compound, the “STA Human Plasma 37” value in “Plasma stability” turned out to be 884.09. Further, the EC50 in series [3] is 9 µM.

Turning to `CC(=O)OC[C@H]1O[C@@](C#N)(c2ccc3c(N)ncnn23)[C@H](OC(C)=O)[C@@H]1OC(C)=O` [3rd Reference Ester Compound], in series [5], the “DM Caco2 A to B” value amounted to 5.07 and the “DM Caco2 B to A” value is 8.91.

With `C=CCCC(=O)O[C@H]1[C@@H](OC(=O)CCC=C)[C@](C#N)(c2ccc3c(N)ncnn23)O[C@@H]1COC(=O)OC(C)C` [Compound 134, (2R,3R,4R,5R)-2-(4-aminopyrrolo[2,1-f][1,2,4]triazin-7-yl)-2-cyano-5-(((isopropoxycarbonyl)oxy)methyl)tetrahydrofuran-3,4-diyl bis(pent-4-enoate)], the half-maximal effective concentration (EC50) in series [1] was 5.13 µM; in series [3], 1.4 µM. The “STA Human Plasma 37” value in the series “Plasma stability” is listed as 65.405. In series [2], this compound returned a CC50 greater than 50 µM.
